Source: ChEMBL document CHEMBL5143523, “Construction and activity evaluation of novel benzodioxane derivatives as dual-target antifungal inhibitors” (Eur J Med Chem, 2022)
In brackets after ≈: the same amount, converted by molar mass. Activity calls are given as the source filed them. The calls are words filed in the database; no cut-off is given here.

How the values were obtained:
[1] = Hepatotoxicity in mouse infected with Candida albicans ATCC SC5314 assessed as change in plasma AST level at 4 mg/kg, ip administered ever other day for 12 days; assay type: toxicity, organism-based; settings: in vivo, 288 h, time 12 day
Candida albicans [2] = assay: Induction of apoptosis in Candida albicans ATCC SC5314 cells assessed as late apoptotic cells at 8 ug/ml incubated for 72 hrs by Annexin V-FITC/PI staining based flow cytometry method (reference value: 0.12%); assay type: functional; settings: dose 8 µg/ml
[3] = Toxicity in mouse infected with Candida albicans ATCC SC5314 assessed as pathological changes in lung at 4 mg/kg, ip administered ever other day for 12 days by hematoxylin and eosin staining based histopathological analysis; assay type: organism-based; settings: in vivo, 288 h, time 12 day
Squalene epoxidase ERG1 = biological target: T1, Squalene epoxidase ERG1 (Candida albicans, UniProt Q92206); assay: Inhibition of SE in Candida albicans ATCC SC5314 incubated for 30 mins using squalene as substrate in presence of NADPH by spectrophotometer analysis
T1 sequence (Q92206 whole entry): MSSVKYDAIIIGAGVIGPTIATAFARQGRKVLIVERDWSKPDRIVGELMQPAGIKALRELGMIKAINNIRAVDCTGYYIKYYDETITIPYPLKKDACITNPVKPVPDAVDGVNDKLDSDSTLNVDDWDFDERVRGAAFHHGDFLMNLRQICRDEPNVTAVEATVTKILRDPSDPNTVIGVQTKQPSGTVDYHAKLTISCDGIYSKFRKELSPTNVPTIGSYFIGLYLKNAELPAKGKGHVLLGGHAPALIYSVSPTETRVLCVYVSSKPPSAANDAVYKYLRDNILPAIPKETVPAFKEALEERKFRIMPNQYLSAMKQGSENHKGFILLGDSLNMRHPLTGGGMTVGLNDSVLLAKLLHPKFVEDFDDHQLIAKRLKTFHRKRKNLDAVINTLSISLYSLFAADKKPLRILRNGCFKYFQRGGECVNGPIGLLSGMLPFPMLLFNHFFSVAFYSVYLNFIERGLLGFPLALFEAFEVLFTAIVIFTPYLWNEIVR

Candida albicans [4] = assay: Antifungal activity against Candida albicans ATCC SC5314 assessed as change in lanosterol level at 4 ug/ml incubated for 48 hrs by LC-MS analysis (reference value: 3.7%); assay type: functional; settings: dose 4 µg/ml
Mus musculus [5] = assay: In vivo antifungal activity against Candida albicans ATCC SC5314 infected mouse assessed as reduction in fungal infection region at 4 mg/kg, ip administered ever other day for 12 days; assay type: functional, organism-based; settings: time 12.0 day
Candida albicans [6] = assay: Antifungal activity against Candida albicans ATCC SC5314 assessed as decrease in ergosterol content at 4 ug/ml incubated for 48 hrs by LC-MS analysis (reference value: 90.6%); assay type: functional; set-up: scale not given: the % may be the effect or the level left; settings: dose 4 µg/ml
[7] = Hepatotoxicity in mouse infected with Candida albicans ATCC SC5314 assessed as change in plasma ALT level at 4 mg/kg, ip administered ever other day for 12 days; assay type: toxicity, organism-based; settings: in vivo, 288 h, time 12 day
Mus musculus [8] = assay: In vivo antifungal activity against Candida albicans ATCC SC5314 infected mouse assessed as increase in body weight at 4 mg/kg, ip administered ever other day for 12 days; assay type: functional, organism-based; settings: time 12.0 day
Mus musculus [9] = assay: In vivo antifungal activity against Candida albicans ATCC SC5314 infected mouse model assessed as reduction in nuclear aggregation at 4 mg/kg, ip administered ever other day for 12 days by hematoxyin-eosin staining based microscopic analysis; assay type: functional, organism-based; settings: time 12.0 day
Candida albicans [10] = assay: Induction of apoptosis in Candida albicans ATCC SC5314 cells assessed as necrotic cells at 8 ug/ml incubated for 72 hrs by Annexin V-FITC/PI staining based flow cytometry method (reference value: 3.76%); assay type: functional; settings: dose 8 µg/ml
Candida albicans [11] = assay: Antifungal activity against fluconazole resistant Candida albicans strain 103 assessed as fungal growth inhibition measured after 72 hrs by CLSI protocol based liquid medium dilution method; assay type: functional
Candida albicans [12] = assay: Antifungal activity against fluconazole resistant Candida albicans strain 901 assessed as fungal growth inhibition measured after 72 hrs by CLSI protocol based liquid medium dilution method; assay type: functional
[13] = Toxicity in mouse infected with Candida albicans ATCC SC5314 assessed as pathological changes in spleen at 4 mg/kg, ip administered ever other day for 12 days by hematoxylin and eosin staining based histopathological analysis; assay type: organism-based; settings: in vivo, 288 h, time 12 day
Candida albicans [14] = assay: Antifungal activity against Candida albicans ATCC 10231 assessed as fungal growth inhibition measured after 72 hrs by CLSI protocol based liquid medium dilution method; assay type: functional
Candida albicans [15] = assay: Antifungal activity against Candida albicans ATCC SC5314 assessed as change in squalene level at 4 ug/ml incubated for 48 hrs by LC-MS analysis; assay type: functional; settings: dose 4 µg/ml
[16] = Drug uptake in fluconazole resistant Candida albicans strain 901 at 4 ug/ml by fluorescence microscopy; assay type: ADME; settings: dose 4 µg/ml
Candida albicans [17] = assay: Antifungal activity against fluconazole resistant Candida albicans strain 17# assessed as fungal growth inhibition measured after 72 hrs by CLSI protocol based liquid medium dilution method; assay type: functional
Candida albicans [18] = assay: Induction of apoptosis in Candida albicans ATCC SC5314 cells assessed as early apoptotic cells at 8 ug/ml incubated for 72 hrs by Annexin V-FITC/PI staining based flow cytometry method (reference value: 0.56%); assay type: functional; settings: dose 8 µg/ml
Candida albicans [19] = assay: Antifungal activity against fluconazole resistant Candida albicans strain 901 assessed as decrease in fungal cell density at 4 ug/ml by fluorescence microscopy; assay type: functional, organism-based; settings: dose 4.0 µg/ml
[20] = Toxicity in mouse infected with Candida albicans ATCC SC5314 assessed as pathological changes in kidney at 4 mg/kg, ip administered ever other day for 12 days by hematoxylin and eosin staining based histopathological analysis; assay type: organism-based; settings: in vivo, 288 h, time 12 day
Candida albicans [21] = assay: Antifungal activity against fluconazole resistant Candida albicans strain 904 assessed as fungal growth inhibition measured after 72 hrs by CLSI protocol based liquid medium dilution method; assay type: functional
[22] = Toxicity in mouse infected with Candida albicans ATCC SC5314 assessed as pathological changes in heart at 4 mg/kg, ip administered ever other day for 12 days by hematoxylin and eosin staining based histopathological analysis; assay type: organism-based; settings: in vivo, 288 h, time 12 day
[23] = biological target: Lanosterol 14-alpha demethylase (Candida albicans (strain SC5314 / ATCC MYA-2876) (Yeast), UniProt P10613); assay: Inhibition of CYP51 in Candida albicans ATCC SC5314 incubated for 30 mins using eburicol as substrate in presence of NADPH by HPLC analysis
Sequence of Lanosterol 14-alpha demethylase (P10613 whole entry): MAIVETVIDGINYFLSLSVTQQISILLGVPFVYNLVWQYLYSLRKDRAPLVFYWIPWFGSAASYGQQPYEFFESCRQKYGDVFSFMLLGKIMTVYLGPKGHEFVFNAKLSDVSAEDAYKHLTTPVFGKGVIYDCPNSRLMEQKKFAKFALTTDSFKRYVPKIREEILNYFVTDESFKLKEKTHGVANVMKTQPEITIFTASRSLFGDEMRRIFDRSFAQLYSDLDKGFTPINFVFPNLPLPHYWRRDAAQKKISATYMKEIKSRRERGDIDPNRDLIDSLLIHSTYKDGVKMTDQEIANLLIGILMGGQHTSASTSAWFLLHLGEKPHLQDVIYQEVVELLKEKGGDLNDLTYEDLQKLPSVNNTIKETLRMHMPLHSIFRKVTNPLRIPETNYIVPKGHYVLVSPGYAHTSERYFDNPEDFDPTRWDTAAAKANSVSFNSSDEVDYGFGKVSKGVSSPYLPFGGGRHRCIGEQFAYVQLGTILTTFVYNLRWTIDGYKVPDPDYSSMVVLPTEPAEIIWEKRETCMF

Mus musculus [24] = assay: In vivo antifungal activity against Candida albicans ATCC SC5314 infected mouse model assessed as regular arrangement of intercellular space at 4 mg/kg, ip administered ever other day for 12 days by hematoxyin-eosin staining based microscopic analysis; assay type: functional, organism-based; settings: time 12.0 day
Pichia kudriavzevii = assay: Antifungal activity against Candida krusei ATCC 6258 assessed as fungal growth inhibition measured after 72 hrs by CLSI protocol based liquid medium dilution method; assay type: functional
[25] = Nephrotoxicity in mouse infected with Candida albicans ATCC SC5314 assessed as change in plasma BUN level at 4 mg/kg, ip administered ever other day for 12 days; assay type: toxicity, organism-based; settings: in vivo, 288 h, time 12 day
Mus musculus [26] = assay: In vivo antifungal activity against Candida albicans ATCC SC5314 infected mouse model assessed as disappearance of pathogenic fungi at 4 mg/kg, ip administered ever other day for 12 days by hematoxyin-eosin staining based microscopic analysis; assay type: functional, organism-based; settings: time 12.0 day
Candida albicans [27] = assay: Antifungal activity against Candida albicans ATCC SC5314 assessed as change in eburicol level at 4 ug/ml incubated for 48 hrs by LC-MS analysis (reference value: 1.4%); assay type: functional; settings: dose 4 µg/ml
Candida albicans [28] = assay: Antifungal activity against Candida albicans ATCC SC5314 assessed as change in unknown sterol level at 4 ug/ml incubated for 48 hrs by LC-MS analysis (reference value: 4.3%); assay type: functional; settings: dose 4 µg/ml
Nakaseomyces glabratus = assay: Antifungal activity against Candida glabrata ATCC 0001 assessed as fungal growth inhibition measured after 72 hrs by CLSI protocol based liquid medium dilution method; assay type: functional
Candida albicans [29] = assay: Antifungal activity against fluconazole resistant Candida albicans strain CaR assessed as fungal growth inhibition measured after 72 hrs by CLSI protocol based liquid medium dilution method; assay type: functional
Candida albicans [30] = assay: Induction of apoptosis in Candida albicans ATCC SC5314 cells assessed as live cells at 8 ug/ml incubated for 72 hrs by Annexin V-FITC/PI staining based flow cytometry method (reference value: 95.56%); assay type: functional; settings: dose 8 µg/ml
Candida tropicalis = assay: Antifungal activity against Candida tropicalis ATCC 1369 assessed as fungal growth inhibition measured after 72 hrs by CLSI protocol based liquid medium dilution method; assay type: functional
[31] = Toxicity in mouse infected with Candida albicans ATCC SC5314 assessed as pathological changes in liver at 4 mg/kg, ip administered ever other day for 12 days by hematoxylin and eosin staining based histopathological analysis; assay type: organism-based; settings: in vivo, 288 h, time 12 day
Aspergillus fumigatus = assay: Antifungal activity against Aspergillus fumigatus KM8001 assessed as fungal growth inhibition measured after 72 hrs by CLSI protocol based liquid medium dilution method; assay type: functional
Mus musculus [32] = assay: In vivo antifungal activity against Candida albicans ATCC SC5314 infected mouse assessed as regular arrangement of endothelial tissue at 4 mg/kg, ip administered ever other day for 12 days by hematoxyin-eosin staining based microscopic analysis; assay type: functional, organism-based; settings: time 12.0 day
Candida albicans [33] = assay: microbe, parasite or virus in culture; settings: Candida albicans, 904, 72 h
Description: Antifungal activity against fluconazole resistant Candida albicans strain 904 assessed as fungal growth inhibition measured after 72 hrs in presence of miconazole by CLSI protocol based liquid medium dilution method

Candida albicans [34] = assay: Antifungal activity against fluconazole resistant Candida albicans strain CaR assessed as fungal growth inhibition measured after 72 hrs in presence of miconazole by CLSI protocol based liquid medium dilution method
Candida albicans [35] = assay: microbe, parasite or virus in culture; settings: Candida albicans, 103, 72 h
Description: Antifungal activity against fluconazole resistant Candida albicans strain 103 assessed as fungal growth inhibition measured after 72 hrs in presence of miconazole by CLSI protocol based liquid medium dilution method

Candida albicans [36] = assay: microbe, parasite or virus in culture; settings: Candida albicans, 901, 72 h
Description: Antifungal activity against fluconazole resistant Candida albicans strain 901 assessed as fungal growth inhibition measured after 72 hrs in presence of miconazole by CLSI protocol based liquid medium dilution method

Candida albicans [37] = assay: Antifungal activity against fluconazole resistant Candida albicans strain 17# assessed as fungal growth inhibition measured after 72 hrs in presence of miconazole by CLSI protocol based liquid medium dilution method

In the case of `O=C(N[C@H](Cc1ccccc1)Cn1cncn1)c1ccc2c(c1)OCCO2`, the Activity [1] is reported as 83 IU/L, the Activity (Candida albicans [2]) is reported as 1.62% and the Activity [3] is reported as “Non-Toxic”. For the same molecule, the IC50 (Squalene epoxidase ERG1) was 823 nM, the Activity (Candida albicans [4]) was 18.5% and the Activity (Mus musculus [5]) was “Active”. For the same molecule, the Activity (Candida albicans [6]) was 24.7%, the Activity [7] was 54.6 IU/L and the Activity (Mus musculus [8]) was “Active”. The Activity (Mus musculus [9]) was “Active”, the Activity (Candida albicans [10]) was 45.83% and the MIC50 (Candida albicans [11]) was 1 µg/mL (≈ 2.74 µM). For the same molecule, the MIC50 (Candida albicans [12]) was 1 µg/mL (≈ 2.74 µM), the Activity [13] was “Non-Toxic” and the MIC50 (Candida albicans [14]) was 0.25 µg/mL (≈ 0.686 µM). The Activity (Candida albicans [15]) was 15.3%, the Drug uptake [16] was “Active” and the MIC50 (Candida albicans [17]) was 2 µg/mL (≈ 5.49 µM). The Activity (Candida albicans [18]) was 0.38%, the Activity (Candida albicans [19]) was “Active” and the Activity [20] was “Non-Toxic”. For the same molecule, the MIC50 (Candida albicans [21]) was 2 µg/mL (≈ 5.49 µM), the Activity [22] was “Non-Toxic” and the IC50 [23] was 356 nM. The Activity (Mus musculus [24]) was “Active”, the MIC50 (Pichia kudriavzevii) was 0.125 µg/mL (≈ 0.343 µM) and the Activity [25] was 13.1 mmol/L. For the same molecule, the Activity (Mus musculus [26]) was “Active”, the Activity (Candida albicans [27]) was 35.3% and the Activity (Candida albicans [28]) was 6.2%. The MIC50 (Nakaseomyces glabratus) was 0.25 µg/mL (≈ 0.686 µM), the MIC50 (Candida albicans [29]) was 1 µg/mL (≈ 2.74 µM) and the Activity (Candida albicans [30]) was 52.17%. The MIC50 (Candida tropicalis) was 0.125 µg/mL (≈ 0.343 µM), the Activity [31] was “Non-Toxic” and the MIC50 (Aspergillus fumigatus) was 2 µg/mL (≈ 5.49 µM). The Activity (Mus musculus [32]) was “Active”.

`CN(C/C=C/c1ccccc1)Cc1cccc2ccccc12` [NAFTIFINE] showed an Activity (Candida albicans [2]) of 1.99%, an IC50 (Squalene epoxidase ERG1) of 317 nM and an Activity (Candida albicans [4]) of 2.6%. It also gave an Activity (Candida albicans [6]) of 35.1%, an MIC50 (Candida albicans [33]) of 1 µg/mL (≈ 3.48 µM) and an Activity (Candida albicans [10]) of 35.85%. The MIC50 (Candida albicans [11]) was 4 µg/mL (≈ 13.9 µM), the MIC50 (Candida albicans [12]) was 2 µg/mL (≈ 6.96 µM) and the MIC50 (Candida albicans [34]) was 1 µg/mL. The MIC50 (Candida albicans [14]) was 0.5 µg/mL (≈ 1.74 µM), the Activity (Candida albicans [15]) was 52.8% and the MIC50 (Candida albicans [17]) was 2 µg/mL (≈ 6.96 µM). The Activity (Candida albicans [18]) was 0.56%, the MIC50 (Candida albicans [21]) was 4 µg/mL (≈ 13.9 µM) and the MIC50 (Pichia kudriavzevii) was 0.5 µg/mL (≈ 1.74 µM). It also gave an MIC50 (Candida albicans [35]) of 2 µg/mL (≈ 6.96 µM), an Activity (Candida albicans [27]) of 3.7% and an Activity (Candida albicans [28]) of 5.8%. The MIC50 (Nakaseomyces glabratus) was 1 µg/mL (≈ 3.48 µM), the MIC50 (Candida albicans [29]) was 4 µg/mL (≈ 13.9 µM) and the Activity (Candida albicans [30]) was 61.6%. It also gave an MIC50 (Candida tropicalis) of 0.5 µg/mL (≈ 1.74 µM), an MIC50 (Candida albicans [36]) of 2 µg/mL (≈ 6.96 µM) and an MIC50 (Candida albicans [37]) of 1 µg/mL. The MIC50 (Aspergillus fumigatus) was 4 µg/mL (≈ 13.9 µM).
